Test results published in patent US20100215710A1, “Beta-2 Adrenergic Receptor Agonists and Antagonists and Modulation of Wound Healing” (The Regents of the University of California, priority 2005, published 2010).

Tests used:
[1] = test system: human keratinocytes; assay: Keratinocyte proliferation assay (β-AR agonist, OA); format: cell-based
Experimental: Keratinocytes were released from the tissue culture plate by treatment with 0.25% trypsin/EDTA (Gibco, Grand Island, N.Y.), resuspended in KGM and counted using a haemocytometer. Cells were either untreated or pre-treated with okadaic acid (OA) (10 nM) for 45 minutes prior to β-AR agonist (1 μM) addition. 5×10^4 cells were plated per well in a 12 well plate in triplicate in the presence or absence of 1 μM β-AR agonist, 10 nM OA or both. Triplicate wells were harvested and counted on days 2, 4, 6, 8. The medium was changed every day. Significance was taken as p<0.01, using Student's t test (unpaired) to compare the means of the cell populations.
5×10^4 […] keratinocytes were plated per well in a 12 well plate in triplicate in the presence or absence of β-AR agonist (1 μM) (FIG. 2 Panel A; control represented by circles, 1 μM β-AR agonist by squares), or pre-treated with 10 nM OA for 30 minutes prior to the addition of OA alone or both OA and β-AR agonist, (FIG. 2 Panel B; OA represented by X's and OA/β-AR agonist by stars). Cells were harvested and counted on days 2, 4, 6, 8 as described. The data are representative of three independent experiments with at least two different keratinocyte strains. Values plotted are means+/−SEM. *P<0.01 between β-AR agonist and controls.

[2] = test system: adult human CECs; assay: Immunofluorescent staining of actin and vinculin, adult human CECs; format: cell-based
Experimental: Sterile glass cover slips were transferred into 12 well dishes and collagen-coated with 60 μg/ml collagen I in PBS for 1 hour at 37° C. Cover slips were washed three times with CGM and 3×10^4 adult human CECs were added per well and allowed to attach for 3 hours or overnight. Cells were untreated (control […]), treated with 20 μM β-AR antagonist, 10 nM or 1 μM β-AR agonist for 15 minutes, 100 nM OA for 45 minutes, or pre-treated with 100 nM OA for 30 minutes prior to the addition of 10 nM or 1 μM β-AR agonist for 15 minutes. […]
Cells plated in the absence of β-AR agonist are polarized and crescent shaped with a broad lamellipodium, characteristic of the migratory phenotype (Ridley et al. (2003) “Cell migration: integrating signals from front to back” Science 302:1704-9). […] Image J was used to measure the actin and vinculin associated fluorescence by measuring the mean pixel intensity (MPI) of 25 cells from each condition. Control cells have an MPI of 40.3+/−4.8. β-AR agonist treatment has no significant effect on actin and vinculin associated fluorescence; the MPI of β-AR agonist-treated cells is 44.6+/−2.

[3] = test system: human keratinocytes; assay: Immunofluorescent staining of actin and vinculin, keratinocytes (β-AR agonist, OA); format: cell-based
Experimental: (§1) Sterile glass cover-slips (Fisher Scientific, Pittsburgh, Pa.) were transferred into 12 well dishes and collagen-coated with 60 μg/ml collagen I in KGM for 1 hour at 37° C. Cover-slips were washed three times with KGM and 3×10^4 cells were added per well and allowed to attach overnight. Cells were untreated, treated with 1 μM β-AR agonist for 15 minutes, OA (10 nM) for 45 minutes, or pre-treated with OA (10 nM) for 30 minutes prior to the addition of 1 μM β-AR agonist for 15 minutes. All steps were performed at room temperature unless otherwise noted. Cover slips were washed twice in PBS and fixed for 10 minutes in 4% paraformaldehyde. Cover-slips were washed twice in PBS between each step. Cells were permeabilized for 5 minutes with 0.1% Triton-X-100/PBS, blocked with 5% goat serum/PBS for 20 minutes, primary monoclonal anti-vinculin antibody (Sigma, St. Louis, Mo.) or anti-phospho-ERK antibody (Cell Signaling Technology, Beverly, Mass.) were added drop-wise in 1% goat serum/PBS (1:100) and incubated for 1 hour at 37° C. A goat anti-mouse cy3 (Jackson labs, West Grove, Pa.) (1:100) antibody was then added in 1% goat serum/PBS for 1 hour at 37° C. Alexa 488-phalloidin (Molecular Probes, Eugene, Oreg.) (1:40) in PBS was added to the vinculin-stained cover-slips for 20 minutes. […]

[4] = test system: phospho-ERK; assay: Phospho-ERK immunolocalization in keratinocytes; format: cell-based, human
Experimental: as §1

[5] = OA 10 nM pre-treatment prior to 1 μM β-AR agonist

Compound: C=C1[C@@H](O)[C@@H]2O[C@]3(CC[C@H](/C=C/[C@@H](C)[C@@H]4CC(C)=C[C@@]5(O[C@H](C[C@@](C)(O)C(=O)O)CC[C@H]5O)O4)O3)CC[C@H]2O[C@@H]1[C@@H](O)C[C@H](C)[C@H]1O[C@@]2(CCCCO2)CC[C@H]1C [OA, okadaic acid]
- effect on keratinocyte proliferation ([1]; OA 10 nM alone): no effect
- effect on β2-AR-mediated decrease in proliferation ([1]; OA 10 nM pre-treatment, then OA plus 1 μM β-AR agonist): completely prevents
- effect on cytoskeletal organization ([2]; OA 100 nM alone): no effect
- effect on β2-AR-mediated alterations in cytoskeletal organization ([2]; OA 100 nM pre-treatment prior to β-AR agonist 10 nM): prevents
- effect on cytoskeletal conformation ([3]; OA 10 nM alone, 45 minutes): no effect
- effect on β2-AR-mediated change in cytoskeletal conformation [3, 5]: prevents
- effect on level of ERK phosphorylation or localization ([4]; OA 10 nM alone): no effect
- effect on agonist-induced loss of lamellipodial phospho-ERK localization and nuclear/peri-nuclear decrease [4, 5]: prevents
